Measurements reported in ChEMBL document CHEMBL4765455, “Design, synthesis, and biological evaluations of novel 3-amino-4-ethynyl indazole derivatives as Bcr-Abl kinase inhibitors with potent cellular antileukemic activity” (Eur J Med Chem, 2020).
pEC50, pIC50: −log10 of the molar value.

Columns and labels:
CCRF-CEM [1] = test: Antiproliferative activity against human CCRF-CEM cells assessed as cell growth inhibition at 10 uM measured after 48 hrs by SRB assay relative to control; assay type: functional; conditions: read-out: GI
[2] = target: Tyrosine-protein kinase SYK (Homo sapiens) (UniProt P43405); test: Inhibition of SYK (unknown origin) at 1 uM relative to control
[3] = target: Aurora kinase A (Homo sapiens) (UniProt O14965); test: Inhibition of Aurora A (unknown origin) at 1 uM relative to control
[4] = target: Serine/threonine-protein kinase pim-1 (Homo sapiens) (UniProt P11309); test: Inhibition of PIM1 (unknown origin) at 1 uM relative to control
[5] = target: Hepatocyte growth factor receptor (Homo sapiens) (UniProt P08581); test: Inhibition of c-MET (unknown origin) at 1 uM relative to control
[6] = Oral bioavailability in ICR mouse at 10 mg/kg measured up to 8 hrs by LC-MS/MS analysis; assay type: ADME, organism-based; conditions: in vivo
[7] = target: Macrophage colony-stimulating factor 1 receptor (Homo sapiens, UniProt P07333); test: Inhibition of FMS (unknown origin) at 1 uM relative to control
Homo sapiens [8] = species: Homo sapiens; test: Selectivity index, ratio of IC50 for FMS (unknown origin) to IC50 for Bcr-Abl (unknown origin)
[9] = target: Serine/threonine-protein kinase Chk1 (Homo sapiens) (UniProt O14757); test: Inhibition of CHK1 (unknown origin) at 1 uM relative to control
RPMI-8226 = test: Antiproliferative activity against human RPMI-8226 cells assessed as cell growth inhibition measured after 48 hrs by SRB assay; assay type: functional
[10] = target: Proto-oncogene tyrosine-protein kinase ROS (Homo sapiens) (UniProt P08922); test: Inhibition of ROS/ROS1 (unknown origin) at 1 uM relative to control
[11] = target: Voltage-gated inwardly rectifying potassium channel KCNH2 (Homo sapiens, UniProt Q12809); test: Inhibition of human ERG incubated for 4 hrs by competitive fluorescence tracer binding based assay
[12] = target: Epidermal growth factor receptor (Homo sapiens) (UniProt P00533); test: Inhibition of EGFR (unknown origin) at 1 uM relative to control
[13] = target: T1, Serine/threonine-protein kinase B-raf (Homo sapiens, UniProt P15056); test: Inhibition of BRAF (unknown origin) at 1 uM relative to control
[14] = Clearance in ICR mouse at 5 mg/kg, iv measured up to 8 hrs by LC-MS/MS analysis; assay type: ADME, organism-based; conditions: in vivo
K562 [15] = test: Antiproliferative activity against human K562 cells assessed as cell growth inhibition incubated for 72 hrs by MTT assay; assay type: functional
[16] = target: Bcr/Abl fusion protein (Homo sapiens) (UniProt P00519+P11274); test: Inhibition of Bcr-Abl in human K562 cells assessed as reduction in Bcr-Abl phosphorylation incubated for 1 hr by Western blotting analysis; assay type: cell-based; conditions: dose 0.003-0.3 µM
[17] = Tmax in ICR mouse at 10 mg/kg, po measured up to 8 hrs by LC-MS/MS analysis; assay type: ADME, organism-based; conditions: in vivo
[18] = target: Dual specificity mitogen-activated protein kinase kinase 1 (Homo sapiens) (UniProt Q02750); test: Inhibition of MEK1 (unknown origin) at 1 uM relative to control
[19] = target: T1, Serine/threonine-protein kinase B-raf; test: Inhibition of BRAF (unknown origin) in presence of ATP
K562 [20] = test: Antiproliferative activity against human K562 cells assessed as cell growth inhibition at 10 uM measured after 48 hrs by SRB assay relative to control; assay type: functional; conditions: read-out: GI
HL-60(TB) = test: Antiproliferative activity against human HL-60(TB) cells assessed as cell growth inhibition measured after 48 hrs by SRB assay; assay type: functional
Homo sapiens [21] = species: Homo sapiens; test: Selectivity index, ratio of IC50 for human ERG to EC50 for ABL1 (unknown origin) expressed in human HEK293 cells; assay type: cell-based
[22] = target: Proto-oncogene tyrosine-protein kinase Src (Homo sapiens, UniProt P12931); test: Inhibition of c-Src (unknown origin) in presence of ATP
[23] = Volume of distribution at steady state in ICR mouse at 5 mg/kg, iv measured up to 8 hrs by LC-MS/MS analysis; assay type: ADME, organism-based; conditions: in vivo, read-out: Vdss
[24] = Mean residence time in ICR mouse at 5 mg/kg, iv measured up to 8 hrs by LC-MS/MS analysis; assay type: ADME, organism-based; conditions: in vivo
[25] = Selectivity index, ratio of GI50 for human HL60(TB) cells to GI50 for human K562 cells; assay type: functional
[26] = Half life in ICR mouse at 10 mg/kg, po measured up to 8 hrs by LC-MS/MS analysis; assay type: ADME, organism-based; conditions: in vivo
[27] = target: Death-associated protein kinase 1 (Homo sapiens) (UniProt P53355); test: Inhibition of DAPK1 (unknown origin) at 1 uM relative to control
[28] = AUClast in ICR mouse at 10 mg/kg, po measured up to 8 hrs by LC-MS/MS analysis; assay type: ADME, organism-based; set-up: route oral, dose 10 mg/kg, time <=8; conditions: in vivo
Homo sapiens [29] = species: Homo sapiens; test: Selectivity index, ratio of IC50 for c-Src (unknown origin) to IC50 for Bcr-Abl (unknown origin)
MOLT-4 = test: Antiproliferative activity against human MOLT-4 cells assessed as cell growth inhibition measured after 48 hrs by SRB assay; assay type: functional
SR = test: Antiproliferative activity against human SR cells assessed as cell growth inhibition at 10 uM measured after 48 hrs by SRB assay relative to control; assay type: functional; conditions: read-out: GI
[30] = Half life in ICR mouse at 5 mg/kg, iv measured up to 8 hrs by LC-MS/MS analysis; assay type: ADME, organism-based; conditions: in vivo
[31] = target: Tyrosine-protein kinase ABL1 (Homo sapiens, UniProt P00519); test: Inhibition of NanoLuc-fused ABL1 (unknown origin) expressed in human HEK293 cells incubated for 2 to 3 mins by NanoBRET assay; assay type: cell-based
[32] = Mean residence time in ICR mouse at 10 mg/kg, po measured up to 8 hrs by LC-MS/MS analysis; assay type: ADME, organism-based; conditions: in vivo
CCRF-CEM [33] = test: Antiproliferative activity against human CCRF-CEM cells assessed as cell growth inhibition measured after 48 hrs by SRB assay; assay type: functional
Bcr/Abl fusion protein = Bcr/Abl fusion protein (Homo sapiens, UniProt P00519, T315I); test: Inhibition of BCR-ABL T315I mutant (unknown origin) incubated for 40 mins in presence of [gamma33P]ATP by scintillation method; assay type: protein assay
[34] = target: Insulin-like growth factor 1 receptor (Homo sapiens) (UniProt P08069); test: Inhibition of IGF1R (unknown origin) at 1 uM relative to control
Homo sapiens [35] = species: Homo sapiens; test: Selectivity index, ratio of IC50 for BRAF (unknown origin) to IC50 for Bcr-Abl (unknown origin)
Homo sapiens [36] = species: Homo sapiens; test: Potency index, ratio of test compound IC50 to E4031 IC50 for human […]
[37] = AUClast in ICR mouse at 5 mg/kg, iv measured up to 8 hrs by LC-MS/MS analysis; assay type: ADME, organism-based; set-up: route intravenous, dose 5 mg/kg, time <=8; conditions: in vivo
[38] = target: Rho-associated protein kinase 1 (Homo sapiens) (UniProt Q13464); test: Inhibition of ROCK1 (unknown origin) at 1 uM relative to control

T1 sequence (P15056 whole entry): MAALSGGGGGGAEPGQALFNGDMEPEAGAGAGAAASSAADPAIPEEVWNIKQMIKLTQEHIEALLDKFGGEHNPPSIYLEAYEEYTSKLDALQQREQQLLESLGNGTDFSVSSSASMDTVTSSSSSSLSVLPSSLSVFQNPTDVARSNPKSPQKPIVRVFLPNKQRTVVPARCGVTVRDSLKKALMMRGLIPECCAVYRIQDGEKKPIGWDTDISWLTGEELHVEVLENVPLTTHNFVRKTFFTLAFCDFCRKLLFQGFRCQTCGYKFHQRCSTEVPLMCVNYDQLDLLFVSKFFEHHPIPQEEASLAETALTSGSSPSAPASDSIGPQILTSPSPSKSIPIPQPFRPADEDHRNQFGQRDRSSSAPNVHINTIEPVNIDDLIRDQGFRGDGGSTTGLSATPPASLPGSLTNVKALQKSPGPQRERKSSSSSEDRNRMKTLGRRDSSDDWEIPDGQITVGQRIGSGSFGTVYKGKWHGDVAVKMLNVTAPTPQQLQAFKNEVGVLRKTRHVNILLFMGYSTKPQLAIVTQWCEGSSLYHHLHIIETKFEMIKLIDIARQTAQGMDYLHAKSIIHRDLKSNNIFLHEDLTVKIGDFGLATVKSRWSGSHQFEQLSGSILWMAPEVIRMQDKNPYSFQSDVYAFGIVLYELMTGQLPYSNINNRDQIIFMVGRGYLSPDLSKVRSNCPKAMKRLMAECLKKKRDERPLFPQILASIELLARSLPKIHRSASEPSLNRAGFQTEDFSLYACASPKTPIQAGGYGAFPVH
Macrophage colony-stimulating factor 1 receptor, sequence (P07333 whole entry): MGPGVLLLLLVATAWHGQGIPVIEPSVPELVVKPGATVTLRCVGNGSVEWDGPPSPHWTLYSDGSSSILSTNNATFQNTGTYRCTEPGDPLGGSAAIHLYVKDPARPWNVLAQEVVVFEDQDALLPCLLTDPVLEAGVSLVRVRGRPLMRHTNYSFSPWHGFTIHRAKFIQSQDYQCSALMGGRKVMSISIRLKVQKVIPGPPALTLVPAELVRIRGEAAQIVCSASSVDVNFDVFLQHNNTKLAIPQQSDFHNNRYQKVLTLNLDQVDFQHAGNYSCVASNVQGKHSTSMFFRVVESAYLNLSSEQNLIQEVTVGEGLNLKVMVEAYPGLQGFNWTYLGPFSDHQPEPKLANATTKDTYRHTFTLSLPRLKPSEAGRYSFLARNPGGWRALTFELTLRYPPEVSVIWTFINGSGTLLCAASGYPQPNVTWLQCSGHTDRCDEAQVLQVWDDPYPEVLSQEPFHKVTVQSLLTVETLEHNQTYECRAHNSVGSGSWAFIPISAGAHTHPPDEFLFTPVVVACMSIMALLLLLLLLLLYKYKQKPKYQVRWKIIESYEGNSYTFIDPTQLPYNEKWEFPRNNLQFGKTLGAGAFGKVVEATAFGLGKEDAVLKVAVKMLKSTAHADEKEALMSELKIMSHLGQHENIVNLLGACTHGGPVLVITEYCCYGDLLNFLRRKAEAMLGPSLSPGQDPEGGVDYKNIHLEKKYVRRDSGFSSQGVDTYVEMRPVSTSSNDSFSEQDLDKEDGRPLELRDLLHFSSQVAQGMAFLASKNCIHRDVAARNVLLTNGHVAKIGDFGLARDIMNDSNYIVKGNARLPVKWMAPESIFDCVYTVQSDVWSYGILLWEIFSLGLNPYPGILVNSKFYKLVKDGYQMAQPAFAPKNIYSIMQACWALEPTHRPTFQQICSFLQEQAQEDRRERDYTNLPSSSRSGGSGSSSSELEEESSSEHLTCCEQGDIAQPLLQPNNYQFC
Serine/threonine-protein kinase Chk1 (Homo sapiens), sequence (O14757 whole entry): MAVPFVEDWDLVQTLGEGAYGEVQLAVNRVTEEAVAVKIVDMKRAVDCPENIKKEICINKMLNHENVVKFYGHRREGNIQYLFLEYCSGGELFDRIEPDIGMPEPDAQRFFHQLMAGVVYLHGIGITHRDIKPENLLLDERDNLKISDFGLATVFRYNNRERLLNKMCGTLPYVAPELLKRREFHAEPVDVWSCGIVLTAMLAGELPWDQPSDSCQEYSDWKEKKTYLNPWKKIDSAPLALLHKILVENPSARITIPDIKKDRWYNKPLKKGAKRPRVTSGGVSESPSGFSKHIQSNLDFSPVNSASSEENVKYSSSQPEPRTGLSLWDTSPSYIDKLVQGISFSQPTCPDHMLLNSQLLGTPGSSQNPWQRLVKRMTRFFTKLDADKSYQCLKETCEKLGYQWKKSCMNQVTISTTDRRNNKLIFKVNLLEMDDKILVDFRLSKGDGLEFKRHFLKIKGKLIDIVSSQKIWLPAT
Hepatocyte growth factor receptor (Homo sapiens), sequence (P08581 whole entry): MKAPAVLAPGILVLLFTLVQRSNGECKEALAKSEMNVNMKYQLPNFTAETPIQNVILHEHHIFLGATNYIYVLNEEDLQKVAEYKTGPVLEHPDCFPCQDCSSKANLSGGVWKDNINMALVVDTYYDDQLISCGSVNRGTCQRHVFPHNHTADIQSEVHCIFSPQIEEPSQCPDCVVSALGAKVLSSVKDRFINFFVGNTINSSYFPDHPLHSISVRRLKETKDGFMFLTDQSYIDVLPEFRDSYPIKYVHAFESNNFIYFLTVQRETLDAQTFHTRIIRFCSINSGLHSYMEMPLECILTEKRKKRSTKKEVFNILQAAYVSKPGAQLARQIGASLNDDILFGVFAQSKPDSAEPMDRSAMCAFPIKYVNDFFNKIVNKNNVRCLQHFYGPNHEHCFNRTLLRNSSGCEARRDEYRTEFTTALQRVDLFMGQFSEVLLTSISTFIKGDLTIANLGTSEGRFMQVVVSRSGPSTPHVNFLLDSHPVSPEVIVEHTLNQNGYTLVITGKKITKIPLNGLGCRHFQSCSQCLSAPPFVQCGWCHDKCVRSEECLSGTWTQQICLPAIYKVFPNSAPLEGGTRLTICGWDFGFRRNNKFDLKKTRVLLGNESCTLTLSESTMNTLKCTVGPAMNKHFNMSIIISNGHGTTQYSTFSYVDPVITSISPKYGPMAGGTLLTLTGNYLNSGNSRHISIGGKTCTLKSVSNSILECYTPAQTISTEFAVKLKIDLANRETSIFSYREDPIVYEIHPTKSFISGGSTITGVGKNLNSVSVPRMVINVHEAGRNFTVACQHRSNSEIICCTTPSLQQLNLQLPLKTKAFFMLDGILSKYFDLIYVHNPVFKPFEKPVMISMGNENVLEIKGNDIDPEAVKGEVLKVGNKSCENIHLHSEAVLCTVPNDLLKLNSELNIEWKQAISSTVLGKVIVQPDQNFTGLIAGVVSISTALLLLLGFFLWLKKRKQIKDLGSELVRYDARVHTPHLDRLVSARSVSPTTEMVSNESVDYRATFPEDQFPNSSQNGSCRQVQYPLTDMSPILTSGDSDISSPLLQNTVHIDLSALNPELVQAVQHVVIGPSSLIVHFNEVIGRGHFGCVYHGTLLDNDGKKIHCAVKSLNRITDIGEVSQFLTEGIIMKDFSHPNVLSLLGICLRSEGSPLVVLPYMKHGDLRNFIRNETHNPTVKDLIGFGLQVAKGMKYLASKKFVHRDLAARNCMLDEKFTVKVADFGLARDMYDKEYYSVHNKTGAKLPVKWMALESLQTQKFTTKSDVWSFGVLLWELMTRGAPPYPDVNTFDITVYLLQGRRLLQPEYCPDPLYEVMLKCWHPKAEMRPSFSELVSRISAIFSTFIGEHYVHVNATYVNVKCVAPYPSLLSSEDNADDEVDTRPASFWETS
Serine/threonine-protein kinase pim-1 (Homo sapiens), sequence (P11309 whole entry, looked up): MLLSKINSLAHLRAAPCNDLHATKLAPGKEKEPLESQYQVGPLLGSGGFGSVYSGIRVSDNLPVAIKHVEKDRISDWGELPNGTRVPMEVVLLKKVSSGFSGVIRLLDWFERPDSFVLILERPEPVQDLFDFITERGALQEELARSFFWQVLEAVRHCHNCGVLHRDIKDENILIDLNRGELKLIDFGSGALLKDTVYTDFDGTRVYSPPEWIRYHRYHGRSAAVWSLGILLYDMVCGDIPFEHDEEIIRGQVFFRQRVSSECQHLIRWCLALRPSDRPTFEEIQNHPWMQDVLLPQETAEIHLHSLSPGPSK
Proto-oncogene tyrosine-protein kinase Src, sequence (P12931 2-536 limits assumed): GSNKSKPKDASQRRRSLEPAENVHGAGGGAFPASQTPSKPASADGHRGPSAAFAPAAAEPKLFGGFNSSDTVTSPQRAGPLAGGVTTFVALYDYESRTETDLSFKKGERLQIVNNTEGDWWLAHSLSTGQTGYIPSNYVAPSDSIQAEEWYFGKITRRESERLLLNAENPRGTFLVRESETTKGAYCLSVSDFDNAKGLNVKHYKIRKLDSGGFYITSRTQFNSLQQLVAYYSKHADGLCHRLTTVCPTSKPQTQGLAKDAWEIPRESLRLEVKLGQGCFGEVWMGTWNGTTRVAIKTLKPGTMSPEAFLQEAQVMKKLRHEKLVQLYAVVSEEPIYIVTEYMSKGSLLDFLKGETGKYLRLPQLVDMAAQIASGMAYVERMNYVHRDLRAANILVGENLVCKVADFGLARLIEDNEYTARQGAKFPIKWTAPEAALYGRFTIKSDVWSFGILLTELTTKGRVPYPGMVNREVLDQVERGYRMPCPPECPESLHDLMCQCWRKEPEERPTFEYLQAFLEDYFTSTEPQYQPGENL
Aurora kinase A (Homo sapiens), sequence (O14965 whole entry): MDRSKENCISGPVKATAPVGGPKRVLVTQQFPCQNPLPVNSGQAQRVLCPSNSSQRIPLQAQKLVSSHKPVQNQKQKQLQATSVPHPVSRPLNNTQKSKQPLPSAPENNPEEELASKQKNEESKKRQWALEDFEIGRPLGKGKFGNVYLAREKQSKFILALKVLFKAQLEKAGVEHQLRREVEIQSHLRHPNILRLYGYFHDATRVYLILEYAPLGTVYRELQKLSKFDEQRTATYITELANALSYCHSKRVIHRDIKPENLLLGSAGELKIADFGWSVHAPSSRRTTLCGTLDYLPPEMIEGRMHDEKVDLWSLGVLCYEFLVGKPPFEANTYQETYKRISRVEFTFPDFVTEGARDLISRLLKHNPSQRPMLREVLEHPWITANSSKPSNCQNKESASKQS

Nc1n[nH]c2cccc(C#Cc3cccc(NC(=O)c4ccc(N5CCOCC5)c(C(F)(F)F)c4)c3)c12
inhibition of growth at 10 µM (CCRF-CEM [1]): 89.5% | inhibition [2]: < 30% | inhibition [3]: 43.4% | inhibition [4]: < 30% | inhibition [5]: 43.4% | bioavailability [6]: 0.6% | inhibition [7]: 87.8% | Ratio IC50 (Homo sapiens [8]): 3.5 | inhibition [9]: < 30% | GI50 (RPMI-8226): 1980 nM | inhibition [10]: < 30% | pIC50 [11]: 5.47 | inhibition [12]: 43.4% | inhibition [13]: 87.8% | clearance [14]: 5 mL/min/kg | GI50 (K562 [15]): 20 nM | Activity [16]: Dose-dependent effect | Tmax [17]: 0.6 h | inhibition [18]: < 30% | pIC50 [19]: 6.91 | inhibition of growth at 10 µM (K562 [20]): 99% | GI50 (HL-60(TB)): 1400 nM | Ratio IC50/EC50 (Homo sapiens [21]): 233 | pIC50 [22]: 7.18 | Vd [23]: 1.4 L/kg | MRT [24]: 4.7 h | RatioGI50 [25]: 140 | half-life [26]: 0.7 h | inhibition [27]: < 30% | AUC(0-t) at 8 h [28]: 175 ng·h/mL | Ratio IC50 (Homo sapiens [29]): 14.3 | GI50 (MOLT-4): 1310 nM | inhibition of growth at 10 µM (SR): 87.4% | half-life [30]: 3.5 h | pEC50 [31]: 7.84 | MRT [32]: 1.3 h | GI50 (CCRF-CEM [33]): 1360 nM | pIC50 (Bcr/Abl fusion protein): 6.64 | inhibition [34]: < 30% | Ratio IC50 (Homo sapiens [35]): 26.5 | Ratio IC50 (Homo sapiens [36]): 310 | AUC(0-t) at 8 h [37]: 14000 ng·h/mL | inhibition [38]: < 30%
